Reference: ChEMBL document CHEMBL1201862, “PubChem BioAssay data set” (2004)
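The compound was tested at five concentrations on cells cultured in 96-well plates, with a 48-hour exposure period. GI50 is the concentration that inhibits growth by half.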 Calls of active or inactive are those of the source. No stated cut-off is given here; in the data, active = GI50 up to about 1.1 µM and inactive = higher. Residues, ends and D or L forms follow the SMILES beside them. *: point of attachment. Bn = c1ccc(C*)cc1

Experiments:
Experiment in all cases: NCI anticancer screen, dose series, 48 h
T47D = tested on: T47D
SF-539 = tested on: SF-539
Malme-3M = tested on: Malme-3M
SF-268 = tested on: SF-268
NCI-H522 = tested on: NCI-H522
UACC-257 = tested on: UACC-257
U-251 = tested on: U-251
HCT-116 = tested on: HCT-116
KM12 = tested on: KM12
OVCAR-4 = tested on: OVCAR-4
M14 = tested on: M14
MDA-N = tested on: MDA-N
IGROV-1 = tested on: IGROV-1
CAKI-1 = tested on: CAKI-1
SK-OV-3 = tested on: SK-OV-3
HOP-62 = tested on: HOP-62
SK-MEL-5 = tested on: SK-MEL-5
SNB-19 = tested on: SNB-19
ACHN = tested on: ACHN

Row | Structure (SMILES) | GI50 (T47D) | GI50 (SF-539) | GI50 (Malme-3M) | GI50 (SF-268) | GI50 (NCI-H522) | GI50 (UACC-257) | GI50 (U-251) | GI50 (HCT-116) | GI50 (KM12) | GI50 (OVCAR-4) | GI50 (M14) | GI50 (MDA-N) | GI50 (IGROV-1) | GI50 (CAKI-1) | GI50 (SK-OV-3) | GI50 (HOP-62) | GI50 (SK-MEL-5) | GI50 (SNB-19) | GI50 (ACHN)
1 | COC(=O)C(CC(C)C)NC(=O)C(N)Cc1ccc(OCc2ccccc2)cc1 (configuration not stated) (H-Tyr(Bn)-Leu-OMe; configuration not given here) | > 10 µM (inactive) | > 10 µM (inactive) | 2.9 µM (inactive) | > 10 µM (inactive) | > 10 µM (inactive) | > 10 µM (inactive) | > 10 µM (inactive) | > 10 µM (inactive) | > 10 µM (inactive) | > 10 µM (inactive) | > 10 µM (inactive) | > 10 µM (inactive) | > 10 µM (inactive) | > 10 µM (inactive) | > 10 µM (inactive) | > 10 µM (inactive) | > 10 µM (inactive) | > 10 µM (inactive) | > 10 µM (inactive)
2 | CCOC(=O)C1=C(C)N(Cc2ccccc2)C2(O)C=CC(O)=C3C(=O)c4ccccc4C(=O)C312 (configuration not stated) | 18.9 µM (inactive) | 16.3 µM (inactive) | 2.43 µM (inactive) | 10.1 µM (inactive) | 11.9 µM (inactive) | 17.2 µM (inactive) | 16.6 µM (inactive) | 10.2 µM (inactive) | 12.1 µM (inactive) | 15.4 µM (inactive) | 4.99 µM (inactive) | 6.37 µM (inactive) | 4.16 µM (inactive) | 12.1 µM (inactive) | 29.6 µM (inactive) | 14.2 µM (inactive) | 10.3 µM (inactive) | 26.5 µM (inactive) | 17.4 µM (inactive)
3 | O=[N+]([O-])c1ccc2c(c1)Nc1c3ccccc3nc3cccc-2c13 | 3.95 µM (inactive) | 12.1 µM (inactive) | 2 µM (inactive) | 8.61 µM (inactive) | 3.44 µM (inactive) | 16.9 µM (inactive) | 3.18 µM (inactive) | 5.38 µM (inactive) | 3.57 µM (inactive) | 1.43 µM (inactive) | 3.21 µM (inactive) | 3.62 µM (inactive) | 1.47 µM (inactive) | 4.67 µM (inactive) | 2.04 µM (inactive) | 2.07 µM (inactive) | 0.883 µM (active) | 17.3 µM (inactive) | 18.1 µM (inactive)
4 | CC(C)C[C@H](NC(=O)[C@@H](Cc1cccc2ccccc12)NC(=O)N1CCOCC1)B(O)O | 2.45 µM (inactive) | 2.04 µM (inactive) | 1.58 µM (inactive) | 2.96 µM (inactive) | 1.92 µM (inactive) | 2.18 µM (inactive) | 4.57 µM (inactive) | 2.24 µM (inactive) | 5.13 µM (inactive) | 4.72 µM (inactive) | 3.11 µM (inactive) | 2.59 µM (inactive) | 5.06 µM (inactive) | 11.1 µM (inactive) | 6.85 µM (inactive) | 16 µM (inactive) | 3.13 µM (inactive) | 9.77 µM (inactive) | 9.25 µM (inactive)
5 | O=S1(=O)NC2CCC3NS(=O)(=O)NC4CCC(N1)N4S(=O)(=O)N23 (configuration not stated) | > 100 µM (inactive) | > 100 µM (inactive) | > 100 µM (inactive) | > 100 µM (inactive) | > 100 µM (inactive) | > 100 µM (inactive) | > 100 µM (inactive) | > 100 µM (inactive) | > 100 µM (inactive) | > 100 µM (inactive) | > 100 µM (inactive) | > 100 µM (inactive) | > 100 µM (inactive) | > 100 µM (inactive) | > 100 µM (inactive) | > 100 µM (inactive) | > 100 µM (inactive) | > 100 µM (inactive) | > 100 µM (inactive)
6 | COc1cc(N(CCC#N)CCC#N)ccc1C(=N/NC(=O)c1cc(Br)ccc1O)/N=N/c1ccc(C)cc1 | 4.36 µM (inactive) | 29 µM (inactive) | 29.3 µM (inactive) | 15.4 µM (inactive) | 18 µM (inactive) | 25.1 µM (inactive) | 37.4 µM (inactive) | 16.1 µM (inactive) | 17 µM (inactive) | 18.4 µM (inactive) | 28.3 µM (inactive) | 30.9 µM (inactive) | 4.32 µM (inactive) | 27.9 µM (inactive) | 24.2 µM (inactive) | 20.2 µM (inactive) | 17.1 µM (inactive) | 25.6 µM (inactive) | 27 µM (inactive)
7 | CCN(C(=S)N[C@@H](Cc1ccccc1)C(=O)N[C@@H](CC(C)C)C(=O)OC)c1ccccc1 | > 100 µM (inactive) | > 100 µM (inactive) | > 100 µM (inactive) | – | 55.6 µM (inactive) | > 100 µM (inactive) | 50.7 µM (inactive) | 75 µM (inactive) | 50.9 µM (inactive) | > 100 µM (inactive) | > 100 µM (inactive) | > 100 µM (inactive) | 50.4 µM (inactive) | > 100 µM (inactive) | > 100 µM (inactive) | > 100 µM (inactive) | > 100 µM (inactive) | 49.2 µM (inactive) | 47.3 µM (inactive)
